Here are results for 1 molecule from publication PMC2196141 (The Journal of Experimental Medicine, 1997).

This experiment addresses T1, CPP-32 (Homo sapiens, UniProt P42574).
T1 sequence (P42574 29-175 limits assumed): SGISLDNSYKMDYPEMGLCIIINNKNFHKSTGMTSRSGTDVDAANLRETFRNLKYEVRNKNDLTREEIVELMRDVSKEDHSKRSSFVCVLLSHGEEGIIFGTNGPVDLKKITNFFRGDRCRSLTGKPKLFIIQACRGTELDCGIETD
Nature of the experiment: S-nitrosylation of purified p17. It is filed as biochemical.

Turning to `[N]=O` [NO, nitric oxide], the “p17 wt / S-nitrosylation / S-NO/protein” value is 1 ± 0.04 mol/mol.
